Data published in ChEMBL document CHEMBL4689842, “EUbOPEN Chemogenomics Library wave 1” (2021).

What was measured:
Assay type in all cases: toxicity, cell-based
[1] = system: U2OS; assay: Incucyte cell viability with U2OS; details: human, 10 µM, compound concentration 10 uM
[2] = system: HEK-293T; assay: Incucyte cell viability with HEK293T; details: human, 10 µM, compound concentration 10 uM
[3] = system: Fibroblast; assay: Incucyte cell viability with human fibroblast; details: 10 µM, compound concentration 10 uM
[4] = 0 h, replicate number 1, timepoint 0 hours
[5] = 0 h, replicate number 2, timepoint 0 hours
[6] = 6 h, replicate number 1, timepoint 6 hours
[7] = 12 h, replicate number 1, timepoint 12 hours
[8] = 12 h, replicate number 2, timepoint 12 hours
[9] = 18 h, replicate number 1, timepoint 18 hours
[10] = 24 h, replicate number 1, timepoint 24 hours
[11] = 24 h, replicate number 2, timepoint 24 hours
[12] = 6 h, replicate number 2, timepoint 6 hours
[13] = 18 h, replicate number 2, timepoint 18 hours
Also: filed as whole numbers so only -1 and 0 and 1 occur.

SMILES	Growth Rate [1, 4]	Growth Rate [1, 5]	Growth Rate [1, 6]	Growth Rate [1, 7]	Growth Rate [1, 9]	Growth Rate [1, 10]	Growth Rate [1, 11]	Growth Rate [2, 4]	Growth Rate [2, 6]	Growth Rate [2, 7]	Growth Rate [2, 9]	Growth Rate [2, 10]	Growth Rate [3, 4]	Growth Rate [3, 7]	Growth Rate [3, 9]	Growth Rate [3, 10]	Growth Rate [3, 6]	Growth Rate [1, 12]	Growth Rate [3, 12]	Growth Rate [3, 13]	further results
Cc1cccc(NC(=O)N[C@@H]2N=C(c3ccccc3)c3ccccc3N(C)C2=O)c1 [L-365260]	0	1	0	1	0	0	1	0	0	0	0	0	0	1	0	1	–	–	–	–	Growth Rate [1, 8]: 0
CCC(=O)N1CC[C@H](Nc2ncnc3c2CN(c2cnc(OC)c(C(F)(F)F)c2)CC3)C1 [LENIOLISIB]	0	1	0	0	0	0	–	–	–	–	–	–	–	0	0	0	0	–	–	–	Growth Rate [1, 8]: 1; Growth Rate [2, 12]: 0; Growth Rate [2, 8]: 1; Growth Rate [2, 11]: 1; Growth Rate [3, 5]: 1
CCCCc1nc(Cl)c(CO)n1Cc1ccc(-c2ccccc2-c2nn[nH]n2)cc1 [LOSARTAN]	0	–	0	1	0	0	1	0	1	1	1	1	0	1	1	1	1	1	0	0	Growth Rate [1, 13]: 1; Growth Rate [2, 12]: 0; Growth Rate [2, 8]: 0; Growth Rate [2, 13]: 0; Growth Rate [2, 11]: 0; Growth Rate [3, 8]: 0; Growth Rate [3, 11]: 0
O=C(NOC[C@H](O)CO)c1ccc(F)c(F)c1Nc1ccc(I)cc1F [MIRDAMETINIB]	–	0	0	0	0	0	–	0	–	–	–	–	–	1	1	1	1	–	0	–	Growth Rate [2, 5]: 1; Growth Rate [2, 11]: 1; Growth Rate [3, 5]: 0
CO[C@@H]1COCC[C@@H]1N[C@@H]1CC[C@@](C(=O)N2CCc3ncc(C(F)(F)F)cc3C2)(C(C)C)C1 [MK-0812]	0	–	–	1	1	1	–	0	1	1	1	1	0	1	1	1	1	0	0	0	Growth Rate [2, 12]: 0; Growth Rate [3, 5]: 1; Growth Rate [3, 11]: 0
CC1(C)CNc2cc(NC(=O)c3cccnc3NCc3ccncc3)ccc21.O=P(O)(O)O.O=P(O)(O)O [MOTESANIB DIPHOSPHATE]	0	1	1	1	1	1	0	0	–	–	–	–	0	1	1	1	–	0	0	0	Growth Rate [3, 8]: 0; Growth Rate [3, 11]: 0
N#CC1(c2ccccn2)CCN(Cc2cc(C(=O)N3CCCC3)c(=O)n3ccccc23)CC1 [MSD-M1PAM-NC]	–	0	–	0	0	0	1	1	1	0	0	0	0	1	1	0	–	–	1	0	Growth Rate [2, 5]: 0; Growth Rate [2, 12]: 0
CCCc1c(-c2ccc(O)cc2)nn(-c2ccc(O)cc2)c1-c1ccc(O)cc1 [PROPYLPYRAZOLETRIOL]	1	0	–	1	0	1	–	0	1	1	1	0	0	0	0	0	0	1	–	1	Growth Rate [1, 13]: 1; Growth Rate [2, 11]: 1; Growth Rate [3, 8]: 1; Growth Rate [3, 11]: 1
COc1cccc(OC)c1-c1cc(C(=O)NC2(C(=O)O)C3CC4CC(C3)CC2C4)nn1-c1ccnc2cc(Cl)ccc12 (stereo unspecified) [REMINERTANT]	1	–	–	1	0	0	1	0	0	0	0	0	0	1	1	1	–	1	1	0	Growth Rate [1, 13]: 1; Growth Rate [2, 12]: 1; Growth Rate [2, 8]: 1; Growth Rate [3, 8]: 0; Growth Rate [3, 11]: 0
CO[C@H]1/C=C/O[C@@]2(C)Oc3c(C)c(O)c4c(O)c(c(/C=N/N5CCN(C)CC5)c(O)c4c3C2=O)NC(=O)/C(C)=C\C=C\[C@H](C)[C@H](O)[C@@H](C)[C@@H](O)[C@@H](C)[C@H](OC(C)=O)[C@@H]1C [RIFAMPIN]	0	–	–	1	1	0	1	0	1	1	1	1	0	0	0	0	0	1	–	–	–
